Tests used:
[1] = Drug concentration at steady state in human at 300 to 600 mg, po QD after 24 hrs; assay type: ADME, organism-based; settings: in vivo, read-out: Css
[2] = Ratio of drug concentration at steady state in human at 300 to 600 mg, po QD after 24 hrs to IC50 for human MRP4 overexpressed in Sf9 insect cells; assay type: ADME, organism-based; settings: in vivo
[3] = AUC in human at 300 to 600 mg, po QD after 24 hrs; assay type: ADME, organism-based; settings: in vivo
[4] = target: ATP-binding cassette sub-family C member 2 (Homo sapiens, UniProt Q92887); assay: Inhibition of human MRP2 overexpressed in Sf9 cell membrane vesicles assessed as uptake of [3H]-estradiol-17beta-D-glucuronide in presence of ATP and GSH measured after 20 mins by membrane vesicle transport assay
[5] = Ratio of drug concentration at steady state in human at 300 to 600 mg, po QD after 24 hrs to IC50 for human BSEP overexpressed in Sf9 insect cells; assay type: ADME, organism-based; settings: in vivo
[6] = target: ATP-binding cassette sub-family C member 3 (Homo sapiens, UniProt O15438); assay: Inhibition of human MRP3 overexpressed in Sf9 insect cell membrane vesicles assessed as uptake of [3H]-estradiol-17beta-D-glucuronide in presence of ATP and GSH measured after 10 mins by membrane vesicle transport assay; assay type: ADME, cell-based
[7] = target: T1, ATP-binding cassette sub-family C member 4 (Homo sapiens, UniProt O15439); assay: Inhibition of human MRP4 overexpressed in Sf9 cell membrane vesicles assessed as uptake of [3H]-estradiol-17beta-D-glucuronide in presence of ATP and GSH measured after 20 mins by membrane vesicle transport assay; assay type: ADME, cell-based
T1 sequence (O15439 whole entry): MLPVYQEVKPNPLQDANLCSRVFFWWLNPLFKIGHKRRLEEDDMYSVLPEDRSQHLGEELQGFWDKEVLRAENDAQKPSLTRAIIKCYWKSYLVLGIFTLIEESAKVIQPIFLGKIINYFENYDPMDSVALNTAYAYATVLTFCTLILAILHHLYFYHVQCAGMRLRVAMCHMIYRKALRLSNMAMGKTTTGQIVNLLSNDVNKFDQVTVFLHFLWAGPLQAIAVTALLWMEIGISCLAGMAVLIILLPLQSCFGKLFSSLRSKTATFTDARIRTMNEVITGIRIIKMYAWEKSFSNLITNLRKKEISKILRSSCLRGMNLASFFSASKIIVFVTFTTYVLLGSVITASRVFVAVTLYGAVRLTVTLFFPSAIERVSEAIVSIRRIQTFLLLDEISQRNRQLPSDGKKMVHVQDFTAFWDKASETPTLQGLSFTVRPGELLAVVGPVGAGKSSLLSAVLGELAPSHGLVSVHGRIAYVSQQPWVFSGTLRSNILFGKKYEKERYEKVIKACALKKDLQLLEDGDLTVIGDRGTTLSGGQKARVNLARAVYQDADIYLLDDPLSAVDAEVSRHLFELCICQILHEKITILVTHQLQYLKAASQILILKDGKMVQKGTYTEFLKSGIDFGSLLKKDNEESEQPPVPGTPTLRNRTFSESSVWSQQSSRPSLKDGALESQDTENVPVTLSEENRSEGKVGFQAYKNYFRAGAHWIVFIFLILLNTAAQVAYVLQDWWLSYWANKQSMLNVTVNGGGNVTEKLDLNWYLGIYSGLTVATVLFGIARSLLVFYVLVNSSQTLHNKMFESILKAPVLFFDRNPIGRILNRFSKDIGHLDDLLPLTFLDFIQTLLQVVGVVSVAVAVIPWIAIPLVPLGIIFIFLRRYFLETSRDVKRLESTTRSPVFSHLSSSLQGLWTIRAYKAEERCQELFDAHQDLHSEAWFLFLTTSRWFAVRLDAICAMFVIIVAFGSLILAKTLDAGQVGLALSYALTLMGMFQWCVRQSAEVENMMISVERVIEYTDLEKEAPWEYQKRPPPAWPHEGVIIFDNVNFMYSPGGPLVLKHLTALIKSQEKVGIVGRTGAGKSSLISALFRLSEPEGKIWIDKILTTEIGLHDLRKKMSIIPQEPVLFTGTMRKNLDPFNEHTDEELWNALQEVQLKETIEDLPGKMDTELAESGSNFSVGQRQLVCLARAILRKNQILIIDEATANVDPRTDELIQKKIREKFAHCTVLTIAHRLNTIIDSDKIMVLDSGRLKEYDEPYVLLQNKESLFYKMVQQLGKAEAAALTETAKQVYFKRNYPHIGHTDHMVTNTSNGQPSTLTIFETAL

[8] = Ratio of drug concentration at steady state in human at 20 to 40 mg, po QD after 24 hrs to IC50 for human MRP4 overexpressed in Sf9 insect cells; assay type: ADME, organism-based; settings: in vivo
[9] = Ratio of drug concentration at steady state in human at 20 to 40 mg, po QD after 24 hrs to IC50 for human MRP3 overexpressed in Sf9 insect cells; assay type: ADME, organism-based; settings: in vivo
Bile salt export pump = Bile salt export pump (Homo sapiens, UniProt O95342); assay: Inhibition of human BSEP overexpressed in Sf9 cell membrane vesicles assessed as uptake of [3H]-taurocholate in presence of ATP measured after 15 to 20 mins by membrane vesicle transport assay; assay type: ADME, cell-based
[10] = Ratio of drug concentration at steady state in human at 20 to 40 mg, po QD after 24 hrs to IC50 for human BSEP overexpressed in Sf9 insect cells; assay type: ADME, organism-based; settings: in vivo
[11] = Drug concentration at steady state in human at 2 to 8 mg, po QD after 24 hrs; assay type: ADME, organism-based; settings: in vivo, read-out: Css
[12] = AUC in human at 2 to 8 mg, po QD after 24 hrs; assay type: ADME, organism-based; settings: in vivo
[13] = Ratio of drug concentration at steady state in human at 2 to 8 mg, po QD after 24 hrs to IC50 for human BSEP overexpressed in Sf9 insect cells; assay type: ADME, organism-based; settings: in vivo
[14] = Ratio of drug concentration at steady state in human at 2 to 8 mg, po QD after 24 hrs to IC50 for human MRP4 overexpressed in Sf9 insect cells; assay type: ADME, organism-based; settings: in vivo
[15] = Drug concentration at steady state in human at 20 to 25 mg/kg, po TID after 8 hrs; assay type: ADME, organism-based; settings: in vivo, read-out: Css
[16] = AUC in human at 20 to 25 mg/kg, po TID after 8 hrs; assay type: ADME, organism-based; settings: in vivo
[17] = Ratio of drug concentration at steady state in human at 20 to 25 mg/kg, po TID after 8 hrs to IC50 for human BSEP overexpressed in Sf9 insect cells; assay type: ADME, organism-based; settings: in vivo
[18] = Ratio of drug concentration at steady state in human at 400 to 800 mg, po QD after 24 hrs to IC50 for human BSEP overexpressed in Sf9 insect cells; assay type: ADME, organism-based; settings: in vivo
[19] = Drug concentration at steady state in human at 400 to 800 mg, po QD after 24 hrs; assay type: ADME, organism-based; settings: in vivo, read-out: Css
[20] = AUC in human at 400 to 800 mg, po QD after 24 hrs; assay type: ADME, organism-based; settings: in vivo

Chain of ATP-binding cassette sub-family C member 2 (Q92887 whole entry): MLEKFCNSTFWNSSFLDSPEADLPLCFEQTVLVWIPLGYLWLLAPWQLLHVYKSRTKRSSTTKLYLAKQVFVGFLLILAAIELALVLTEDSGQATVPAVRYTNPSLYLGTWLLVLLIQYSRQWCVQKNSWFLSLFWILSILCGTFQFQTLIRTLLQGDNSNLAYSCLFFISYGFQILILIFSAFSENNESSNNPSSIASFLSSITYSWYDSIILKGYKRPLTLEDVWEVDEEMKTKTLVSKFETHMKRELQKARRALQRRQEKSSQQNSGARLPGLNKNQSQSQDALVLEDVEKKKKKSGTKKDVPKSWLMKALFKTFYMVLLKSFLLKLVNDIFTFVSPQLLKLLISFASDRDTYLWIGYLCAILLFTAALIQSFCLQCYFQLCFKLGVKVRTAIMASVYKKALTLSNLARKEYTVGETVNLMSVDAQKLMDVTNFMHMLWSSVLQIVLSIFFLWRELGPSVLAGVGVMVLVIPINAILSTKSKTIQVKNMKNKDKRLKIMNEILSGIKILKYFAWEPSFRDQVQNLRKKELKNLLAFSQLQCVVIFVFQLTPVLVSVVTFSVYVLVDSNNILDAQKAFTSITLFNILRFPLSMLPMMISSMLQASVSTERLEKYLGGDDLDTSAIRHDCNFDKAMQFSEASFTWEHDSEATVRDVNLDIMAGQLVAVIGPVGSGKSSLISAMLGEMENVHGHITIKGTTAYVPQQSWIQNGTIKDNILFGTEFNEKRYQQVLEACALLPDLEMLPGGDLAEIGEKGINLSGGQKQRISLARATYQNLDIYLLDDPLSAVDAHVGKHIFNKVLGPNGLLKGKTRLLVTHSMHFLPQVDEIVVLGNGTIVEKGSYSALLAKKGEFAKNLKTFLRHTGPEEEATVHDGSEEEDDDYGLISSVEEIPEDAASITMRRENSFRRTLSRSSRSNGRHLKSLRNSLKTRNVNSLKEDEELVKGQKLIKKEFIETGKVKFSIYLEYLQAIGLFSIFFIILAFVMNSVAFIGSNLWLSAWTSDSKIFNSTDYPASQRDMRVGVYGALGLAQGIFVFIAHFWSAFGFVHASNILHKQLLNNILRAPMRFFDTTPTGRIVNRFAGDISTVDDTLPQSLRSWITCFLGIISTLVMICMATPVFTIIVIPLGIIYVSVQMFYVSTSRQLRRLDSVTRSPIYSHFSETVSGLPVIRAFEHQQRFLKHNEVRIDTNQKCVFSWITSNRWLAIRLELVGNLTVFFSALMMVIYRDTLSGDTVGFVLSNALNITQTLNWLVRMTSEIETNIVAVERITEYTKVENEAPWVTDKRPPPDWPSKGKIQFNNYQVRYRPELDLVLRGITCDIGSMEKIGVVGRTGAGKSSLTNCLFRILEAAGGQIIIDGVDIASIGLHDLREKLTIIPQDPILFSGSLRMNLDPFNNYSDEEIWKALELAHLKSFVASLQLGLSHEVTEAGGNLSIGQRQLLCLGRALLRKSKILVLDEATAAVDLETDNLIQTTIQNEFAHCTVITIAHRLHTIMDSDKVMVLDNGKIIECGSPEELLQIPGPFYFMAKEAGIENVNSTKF
Chain of Bile salt export pump (O95342 whole entry): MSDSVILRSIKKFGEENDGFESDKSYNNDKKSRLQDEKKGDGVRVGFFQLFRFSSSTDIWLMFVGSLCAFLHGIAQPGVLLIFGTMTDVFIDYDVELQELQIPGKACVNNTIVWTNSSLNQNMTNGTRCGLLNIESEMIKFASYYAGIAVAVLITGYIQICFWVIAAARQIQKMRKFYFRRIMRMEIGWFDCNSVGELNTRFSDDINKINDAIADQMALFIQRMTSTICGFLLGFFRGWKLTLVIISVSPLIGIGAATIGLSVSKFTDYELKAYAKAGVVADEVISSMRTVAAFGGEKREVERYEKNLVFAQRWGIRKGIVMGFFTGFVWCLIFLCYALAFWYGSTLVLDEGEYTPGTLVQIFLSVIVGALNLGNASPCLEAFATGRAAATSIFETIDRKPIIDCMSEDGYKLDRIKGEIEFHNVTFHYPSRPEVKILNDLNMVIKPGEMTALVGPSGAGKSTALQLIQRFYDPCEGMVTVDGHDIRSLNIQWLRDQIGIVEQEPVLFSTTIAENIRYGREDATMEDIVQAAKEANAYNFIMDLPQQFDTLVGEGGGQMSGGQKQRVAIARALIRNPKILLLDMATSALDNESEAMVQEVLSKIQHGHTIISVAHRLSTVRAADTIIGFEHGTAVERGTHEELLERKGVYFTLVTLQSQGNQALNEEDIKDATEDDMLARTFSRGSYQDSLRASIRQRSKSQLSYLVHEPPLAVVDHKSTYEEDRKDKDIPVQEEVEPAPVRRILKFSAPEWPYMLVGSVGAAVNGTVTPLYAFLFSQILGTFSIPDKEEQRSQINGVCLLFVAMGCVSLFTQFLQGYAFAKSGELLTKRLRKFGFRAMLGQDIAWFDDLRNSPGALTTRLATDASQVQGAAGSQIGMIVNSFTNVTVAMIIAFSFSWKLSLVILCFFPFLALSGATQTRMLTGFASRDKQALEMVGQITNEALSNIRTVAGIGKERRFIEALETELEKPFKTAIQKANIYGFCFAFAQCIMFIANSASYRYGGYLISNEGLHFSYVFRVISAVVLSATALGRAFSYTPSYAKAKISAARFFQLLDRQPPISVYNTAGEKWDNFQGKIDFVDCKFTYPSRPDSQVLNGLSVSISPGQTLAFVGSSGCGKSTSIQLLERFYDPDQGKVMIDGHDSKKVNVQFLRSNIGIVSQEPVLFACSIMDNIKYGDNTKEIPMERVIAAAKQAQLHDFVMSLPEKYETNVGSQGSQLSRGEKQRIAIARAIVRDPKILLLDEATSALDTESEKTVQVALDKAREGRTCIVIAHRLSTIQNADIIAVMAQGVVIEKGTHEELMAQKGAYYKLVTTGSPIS
Chain of ATP-binding cassette sub-family C member 3 (O15438 whole entry): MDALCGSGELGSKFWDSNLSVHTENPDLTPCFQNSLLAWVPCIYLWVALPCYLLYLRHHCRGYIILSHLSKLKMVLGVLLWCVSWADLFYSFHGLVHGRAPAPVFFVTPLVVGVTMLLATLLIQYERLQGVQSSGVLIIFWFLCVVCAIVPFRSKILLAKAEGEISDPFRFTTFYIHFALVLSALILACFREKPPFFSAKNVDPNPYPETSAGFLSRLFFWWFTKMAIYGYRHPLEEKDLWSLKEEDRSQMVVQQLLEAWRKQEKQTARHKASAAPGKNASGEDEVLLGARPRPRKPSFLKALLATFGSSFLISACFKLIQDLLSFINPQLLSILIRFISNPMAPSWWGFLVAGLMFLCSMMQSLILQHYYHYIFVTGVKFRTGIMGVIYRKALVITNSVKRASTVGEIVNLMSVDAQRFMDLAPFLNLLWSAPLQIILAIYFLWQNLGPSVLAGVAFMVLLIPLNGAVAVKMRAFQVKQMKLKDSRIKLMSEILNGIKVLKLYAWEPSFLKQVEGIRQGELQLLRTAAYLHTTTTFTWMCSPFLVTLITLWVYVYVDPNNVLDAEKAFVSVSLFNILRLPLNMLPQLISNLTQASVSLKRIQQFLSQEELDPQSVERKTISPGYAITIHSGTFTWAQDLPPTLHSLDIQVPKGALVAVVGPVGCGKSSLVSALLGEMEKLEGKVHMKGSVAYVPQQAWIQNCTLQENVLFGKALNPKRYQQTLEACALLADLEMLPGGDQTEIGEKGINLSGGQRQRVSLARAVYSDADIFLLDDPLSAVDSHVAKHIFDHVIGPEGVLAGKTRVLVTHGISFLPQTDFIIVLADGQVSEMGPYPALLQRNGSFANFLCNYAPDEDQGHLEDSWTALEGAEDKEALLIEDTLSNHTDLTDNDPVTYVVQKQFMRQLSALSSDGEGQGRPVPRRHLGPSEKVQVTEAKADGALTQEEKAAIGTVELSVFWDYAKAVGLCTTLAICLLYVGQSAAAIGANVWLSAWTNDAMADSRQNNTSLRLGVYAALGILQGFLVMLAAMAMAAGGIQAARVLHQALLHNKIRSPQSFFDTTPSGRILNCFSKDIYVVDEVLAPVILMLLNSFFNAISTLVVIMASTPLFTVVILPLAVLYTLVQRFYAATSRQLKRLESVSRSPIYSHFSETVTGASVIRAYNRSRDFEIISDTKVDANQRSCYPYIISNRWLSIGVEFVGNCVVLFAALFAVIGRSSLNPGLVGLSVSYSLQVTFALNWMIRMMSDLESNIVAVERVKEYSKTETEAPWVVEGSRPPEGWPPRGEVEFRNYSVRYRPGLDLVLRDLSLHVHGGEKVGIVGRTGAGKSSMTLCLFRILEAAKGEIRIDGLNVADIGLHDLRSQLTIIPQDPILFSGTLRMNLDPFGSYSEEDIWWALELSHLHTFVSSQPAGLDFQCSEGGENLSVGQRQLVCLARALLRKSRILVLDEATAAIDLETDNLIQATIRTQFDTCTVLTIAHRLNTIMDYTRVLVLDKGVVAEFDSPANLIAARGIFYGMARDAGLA

| Structure (SMILES) | IC50 [4] | IC50 [6] | IC50 [7] | IC50 (Bile salt export pump) | other results |
| --- | --- | --- | --- | --- | --- |
| CCc1nn(CCCN2CCN(c3cccc(Cl)c3)CC2)c(=O)n1CCOc1ccccc1 [NEFAZODONE] | > 133 µM | > 133 µM | 71 µM | – | concentration at 24 h [1]: 604 nM; Ratio [2]: 0.009; AUC at 24 h [3]: 14.5 µM·h; Ratio [5]: 0.099 |
| O=C(C1CCCCC1)N1CC(=O)N2CCc3ccccc3C2C1 (centres undefined) [PRAZIQUANTEL] | > 133 µM | > 133 µM | > 133 µM | 67.1 µM | concentration at 8 h [15]: 6300 nM; AUC at 8 h [16]: 50.4 µM·h; Ratio [17]: 0.094 |
| CC(=O)O[C@]1(C(C)=O)CC[C@H]2[C@@H]3C=C(C)C4=CC(=O)CC[C@]4(C)[C@H]3CC[C@@]21C [MEGESTROL ACETATE] | > 133 µM | > 133 µM | > 133 µM | 17.8 µM | Ratio [18]: 0.084; concentration at 24 h [19]: 1490 nM; AUC at 24 h [20]: 35.8 µM·h |

Now from value to compound, other results behind:

| IC50 [4] | IC50 [6] | IC50 [7] | Structure (SMILES) | IC50 (Bile salt export pump) | other results |
| --- | --- | --- | --- | --- | --- |
| – | 2 µM | 28.5 µM | CCCc1nc(C(C)(C)O)c(C(=O)OCc2oc(=O)oc2C)n1Cc1ccc(-c2ccccc2-c2nnn[nH]2)cc1 [OLMESARTAN MEDOXOMIL] | 4.73 µM | Ratio [8]: 0.014; Ratio [9]: 0.192; Ratio [10]: 0.081 |
| – | > 133 µM | 21 µM | CN(CCOc1ccc(CC2SC(=O)NC2=O)cc1)c1ccccn1 (centres undefined) [ROSIGLITAZONE] | 2.8 µM | concentration at 24 h [11]: 334 nM; AUC at 24 h [12]: 8.02 µM·h; Ratio [13]: 0.119; Ratio [14]: 0.016 |
